# Measured values reported in PubChem BioAssay AID1918955 (Molecular Pharmacology Branch, DTP, NCI, 2023).
# Where “and” joins values, the source holds several entries; their conditions need not be identical. Identical values can stand only once.
# Tested on: NCI/ADR-RES complex spheroid viability
# Assay: Anticancer human tumor NCI/ADR-RES cell line growth inhibition;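 also: spheroids exposed to compounds for 7 days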;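 as to viability, T/C: 100% = DMSO vehicle treated spheroids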
# Details: for viability, T/C: stronger effect = lower value
# Description: Multicellular complex tumor spheroid response to LSD1 Inhibitor Iadademstat in combination with a variety of drugs and investigational agents in selected tumor cell lines
# The current study was undertaken to assess response to LSD1 inhibitors in combination with standard-of-care drugs and investigational agents in solid tumor complex spheroid models as well as in the K-562 leukemia. Complex spheroids include a stromal component modeled by human endothelial cells (HUVEC) and fibroblasts modeled by human mesenchymal stem cells (MSCs). The concentration ranges selected for each drug and investigational agent were based upon clinically achievable concentrations if the clinical Cmax of the agent was known.
# Compounds. The drugs and investigational agents used in this study are listed on Table 1. All of the agents used, including staurosporine (NSC755774) and gemcitabine (NSC613327), were obtained from the Developmental Therapeutics Program, NCI. FDA-approved anticancer drugs are available from the NCI at http://dtp.nci.nih.gov/branches/dscb/oncology_drugset_explanation.html. Drugs and investigational agents were >95% pure by proton nuclear magnetic resonance (NMR) and liquid chromatography/mass spectrometry (LC/MS). Stock solutions were prepared at 400x in DMSO, stored at -70 degrees C, and diluted in fresh medium prior to their use. The final concentration of DMSO in cell culture wells never exceeded 0.25% (v/v). The FDA-approved anticancer drug set is available from the Developmental Therapeutics Program at https://dtp.cancer.gov/organization/dscb/obtaining/available_plates.htm. All drugs and investigational agents were tested over a range starting from a high concentration at or near the clinical Cmax and decreasing in half-log increments. If the clinical Cmax for an agent had not been determined, the highest concentration tested was 10 microM.
# Cell Lines. The patient-derived cancer cell (PDC) lines: 292921-168-R-J2-PDC, K24384-001-R-PDC, and 521955-158-R2-J5-PDC pancreatic carcinomas, 556581-035-R-J1 ovarian carcinoma, 324938-238-R-J1-PDC, 855422-203-R-J1-PDC and 883617-216-R-J1-PDC urothelial bladder carcinomas, 743489-274-T-PDC renal cell carcinoma, 138582-R-J1 Merkel cell tumor, K60290-347-R-J1 and K57222-313-R-J1-PDC glioblastomas, 653999-131-R-J2-PDC, LG0703-F948-PDC, and 349418-098-R-PDC non-small cell lung carcinomas, 885512-296-R-J2-PDC, 171881-019-R-J1-PDC breast carcinomas and 186277-243-T-J2-PDC and 233499-124-R-J2-PDC colon carcinomas were obtained from the NCI Patient-Derived Models Repository (PDMR, https://pdmr.cancer.gov). The established cell lines NCI/ADR-RES (RRID:CVCL_14520 and OVCAR-5 (RRID:CVCL_1628) ovarian carcinomas, 786-O (RRID:CVCL_1051) and A498 (RRID:CVCL_A498) renal cell carcinoma, NCI-H211 (ATCC, cat. CRL-5824; RRID:CVCL_1529), NCI-H196 (ATCC, cat. CRL-5823, RRID:CVCL_1509), SW 1271 (ATCC, cat. CRL-2177, RRID:CVCL_1716) and NCI-H1876 (ATCC, cat. CRL-5902, RRID:CVCL_1503) small cell lung carcinomas, MDA-MB-231 (RRID:CVCL_0062) and MDA-MB-468 (RRID:CVCL_0419)breast carcinomas (10-12). Pooled donor human umbilical vein endothelial cells (HUVEC, Lonza, cat. CC-2519) and human mesenchymal stem cells (hMSC, Lonza, cat. PT-2501) were purchased from Lonza (Walkersville, MD).
# Cell Culture. All cells were maintained in an incubator at 37 degrees C and 5% CO2 with 95% humidity. The PDC lines were cultured according to standard operating procedures established by the NCI PDMR (https://pdmr.cancer.gov). Briefly all PDCs were thawed and cultured in Matrigel-coated flasks prepared with a working solution of 1X Ham's F-12 nutrient mix, without supplementation (Invitrogen, Waltham, MA, cat. 11765054), 100 U/mL penicillin-streptomycin (Invitrogen, cat. 15140122), and 2.5% Matrigel (Corning Inc., Corning, NY, cat. 354248) for the first three passages. […]
# [1] = curve of first compound, second compound 0.1 µM
# [2] = curve of first compound, second compound 0.316 µM
# [3] = curve of first compound, second compound 1 µM
# [4] = curve of first compound, second compound 3.16 µM
# [5] = curve of first compound, second compound 10 µM
smiles,measurement,setting,value
CC(C)CC(NC(=O)C(Cc1ccccc1)NC(=O)c1cnccn1)B(O)O (stereo not drawn) + NC1CCC(NC2CC2c2ccccc2)CC1,IC50,[1],10.2 nM
same,IC50,[2],12.1 nM
same,IC50,[3],9.4 nM
same,IC50,[4],9.37 nM
same,IC50,[5],6.59 nM
same,"viability, T/C","second compound 0.1 µM, first compound 0.000316 µM",103%
same,"viability, T/C","second compound 0.1 µM, first compound 0.001 µM",110%
same,"viability, T/C","second compound 0.1 µM, first compound 0.00316 µM",92.4%
same,"viability, T/C","second compound 0.1 µM, first compound 0.01 µM",51.5%
same,"viability, T/C","second compound 0.1 µM, first compound 0.0316 µM",10.4%
same,"viability, T/C","second compound 0.1 µM, first compound 0.1 µM",4%
same,"viability, T/C","second compound 0.316 µM, first compound 0.000316 µM",111%
same,"viability, T/C","second compound 0.316 µM, first compound 0.001 µM",101%
same,"viability, T/C","second compound 0.316 µM, first compound 0.00316 µM",100%
same,"viability, T/C","second compound 0.316 µM, first compound 0.01 µM",58.1%
same,"viability, T/C","second compound 0.316 µM, first compound 0.0316 µM",9.17%
same,"viability, T/C","second compound 0.316 µM, first compound 0.1 µM",0.68%
same,"viability, T/C","second compound 1 µM, first compound 0.000316 µM",104%
same,"viability, T/C","second compound 1 µM, first compound 0.001 µM",98.4%
same,"viability, T/C","second compound 1 µM, first compound 0.00316 µM",98.7%
same,"viability, T/C","second compound 1 µM, first compound 0.01 µM",46.7%
same,"viability, T/C","second compound 1 µM, first compound 0.0316 µM",8.19%
same,"viability, T/C","second compound 1 µM, first compound 0.1 µM",0.58%
same,"viability, T/C","second compound 3.16 µM, first compound 0.000316 µM",95.9%
same,"viability, T/C","second compound 3.16 µM, first compound 0.001 µM",97.1%
same,"viability, T/C","second compound 3.16 µM, first compound 0.00316 µM",86.1%
same,"viability, T/C","second compound 3.16 µM, first compound 0.01 µM",48.3%
same,"viability, T/C","second compound 3.16 µM, first compound 0.0316 µM",7.8%
same,"viability, T/C","second compound 3.16 µM, first compound 0.1 µM",0.14%
same,"viability, T/C","second compound 10 µM, first compound 0.000316 µM",94.1%
same,"viability, T/C","second compound 10 µM, first compound 0.001 µM",85.4%
same,"viability, T/C","second compound 10 µM, first compound 0.00316 µM",82.6%
same,"viability, T/C","second compound 10 µM, first compound 0.01 µM",31.4%
same,"viability, T/C","second compound 10 µM, first compound 0.0316 µM",8.41%
same,"viability, T/C","second compound 10 µM, first compound 0.1 µM",0.25%
CC(C)CC(NC(=O)C(Cc1ccccc1)NC(=O)c1cnccn1)B(O)O (stereo not drawn),"viability, T/C",compound 0.000316 µM,96.1% and 106%
same,"viability, T/C",compound 0.001 µM,102% and 107%
same,"viability, T/C",compound 0.00316 µM,92.5% and 93.3%
same,"viability, T/C",compound 0.01 µM,47.3% and 51.2%
same,"viability, T/C",compound 0.0316 µM,5.97% and 5.35%
same,"viability, T/C",compound 0.1 µM,2.36% and 0.51%
same,IC50,curve of compound,9.31 nM and 9.96 nM
Nc1ccn(C2OC(CO)C(O)C2(F)F)c(=O)n1 (stereo not drawn) + NC1CC1c1ccc(-c2cccc(O)c2)cc1,IC50,[1],< 0.949 nM
same,IC50,[2],< 0.949 nM
same,IC50,[3],< 0.949 nM
same,IC50,[4],< 0.949 nM
same,IC50,[5],< 0.949 nM
same,"viability, T/C","second compound 0.1 µM, first compound 0.000949 µM",2.63%
same,"viability, T/C","second compound 0.1 µM, first compound 0.003 µM",2.71%
same,"viability, T/C","second compound 0.1 µM, first compound 0.00949 µM",2.9%
same,"viability, T/C","second compound 0.1 µM, first compound 0.03 µM",2.13%
same,"viability, T/C","second compound 0.1 µM, first compound 0.0949 µM",1.39%
same,"viability, T/C","second compound 0.1 µM, first compound 0.3 µM",0.69%
same,"viability, T/C","second compound 0.316 µM, first compound 0.000949 µM",2.24%
same,"viability, T/C","second compound 0.316 µM, first compound 0.003 µM",2.81%
same,"viability, T/C","second compound 0.316 µM, first compound 0.00949 µM",2.22%
same,"viability, T/C","second compound 0.316 µM, first compound 0.03 µM",1.81%
same,"viability, T/C","second compound 0.316 µM, first compound 0.0949 µM",1.11%
same,"viability, T/C","second compound 0.316 µM, first compound 0.3 µM",0.86%
same,"viability, T/C","second compound 1 µM, first compound 0.000949 µM",2.39%
same,"viability, T/C","second compound 1 µM, first compound 0.003 µM",2.3%
same,"viability, T/C","second compound 1 µM, first compound 0.00949 µM",2.24%
same,"viability, T/C","second compound 1 µM, first compound 0.03 µM",2.16%
same,"viability, T/C","second compound 1 µM, first compound 0.0949 µM",1.32%
same,"viability, T/C","second compound 1 µM, first compound 0.3 µM",0.73%
same,"viability, T/C","second compound 3.16 µM, first compound 0.000949 µM",2.52%
same,"viability, T/C","second compound 3.16 µM, first compound 0.003 µM",2.29%
same,"viability, T/C","second compound 3.16 µM, first compound 0.00949 µM",2.22%
same,"viability, T/C","second compound 3.16 µM, first compound 0.03 µM",2.18%
same,"viability, T/C","second compound 3.16 µM, first compound 0.0949 µM",1.17%
same,"viability, T/C","second compound 3.16 µM, first compound 0.3 µM",0.8%
same,"viability, T/C","second compound 10 µM, first compound 0.000949 µM",2.57%
same,"viability, T/C","second compound 10 µM, first compound 0.003 µM",2.57%
same,"viability, T/C","second compound 10 µM, first compound 0.00949 µM",3.02%
same,"viability, T/C","second compound 10 µM, first compound 0.03 µM",2.33%
same,"viability, T/C","second compound 10 µM, first compound 0.0949 µM",1.52%
same,"viability, T/C","second compound 10 µM, first compound 0.3 µM",1%
O=C(C=Cc1cccc(S(=O)(=O)Nc2ccccc2)c1)NO,"viability, T/C",compound 0.00949 µM,95.3% and 96%
same,"viability, T/C",compound 0.03 µM,81.6% and 75.3%
same,"viability, T/C",compound 0.0949 µM,36.6% and 42%
same,"viability, T/C",compound 0.3 µM,16.7% and 17.2%
same,"viability, T/C",compound 0.949 µM,7.77% and 6.17%
same,"viability, T/C",compound 3 µM,2.68% and 1.54%
same,IC50,curve of compound,69.7 nM and 72.5 nM
Nc1ncn(C2CC(O)C(CO)O2)c(=O)n1 (stereo not drawn),"viability, T/C",compound 0.00316 µM,95.5% and 91.8%
same,"viability, T/C",compound 0.01 µM,89.1% and 76.3%
same,"viability, T/C",compound 0.0316 µM,71% and 57.2%
same,"viability, T/C",compound 0.1 µM,40.1% and 33.6%
same,"viability, T/C",compound 0.316 µM,27.4% and 18.6%
same,"viability, T/C",compound 1 µM,19.8% and 12.7%
same,IC50,curve of compound,70.8 nM and 43.4 nM
Nc1ccccc1NC(=O)c1ccc(CNC(=O)OCc2cccnc2)cc1,"viability, T/C",compound 0.00949 µM,105% and 99.8%
same,"viability, T/C",compound 0.03 µM,98.3% and 100%
same,"viability, T/C",compound 0.0949 µM,88.4% and 94.4%
same,"viability, T/C",compound 0.3 µM,81.6% and 75.8%
same,"viability, T/C",compound 0.949 µM,58.7% and 49.3%
same,"viability, T/C",compound 3 µM,33.9% and 26.6%
same,IC50,curve of compound,1470 nM and 900 nM
